Assay results from publication PMC8319603, “Developing C2-Aroyl Indoles as Novel Inhibitors of IDO1 and Understanding Their Mechanism of Inhibition via Mass Spectroscopy, QM/MM Calculations and Molecular Dynamics Simulation” (Frontiers in Chemistry, 2021).
Converted amounts (≈) assume the structure as drawn. “And” between values parts separate entries of the source, which are not always exact repeats. Equal entries are not always repeated.

Experiments:
[1] = biological target: T1, recombinant protein of human TDO2 enzyme (Homo sapiens, UniProt P48775); assay: TDO2 enzymatic assay in vitro (kynurenine formation, absorbance 492 nm); type: biochemical; conditions: read-out: IC50 against TDO2
T1 construct: purchased Biovision CSB-YP023351HU
T1 sequence (P48775 whole entry): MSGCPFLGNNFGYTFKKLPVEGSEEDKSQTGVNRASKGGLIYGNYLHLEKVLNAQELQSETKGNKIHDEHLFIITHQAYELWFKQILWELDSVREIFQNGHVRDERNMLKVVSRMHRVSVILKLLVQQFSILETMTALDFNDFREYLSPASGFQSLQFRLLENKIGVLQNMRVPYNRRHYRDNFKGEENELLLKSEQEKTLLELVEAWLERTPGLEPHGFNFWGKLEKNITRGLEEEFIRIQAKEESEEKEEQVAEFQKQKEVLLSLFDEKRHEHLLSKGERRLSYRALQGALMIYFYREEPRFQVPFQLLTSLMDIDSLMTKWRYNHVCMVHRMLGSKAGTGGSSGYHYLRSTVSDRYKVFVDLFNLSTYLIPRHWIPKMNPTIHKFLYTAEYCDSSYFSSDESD
Experimental: The recombinant human IDO/TDO protein were purchased from Biovision (Catalog no.: P1096 human recombinant IDO1 and CSB-YP023351HU human recombinant TDO2). All the other HPLC grade solvent were purchased from Merck Pvt. Ltd. The IDO/TDO assays were performed according to the reported procedures.1 and 2, the details of which is mentioned in the SI.
20 µL of IDO1/TDO2 protein (1µg/ml concentration) was added and incubates for 10 min. After that 20 µL of 2 mM L-tryptophan was added and then treated with different test compounds concentration […]
The plate was then sealed well for 2hr incubation process at 37°C. After incubation, 40 µL of 30% TCA solution was added and again incubated for 15 min at 60 °C, the samples were centrifuged for 15 min at 13000 rpm at 4 °C. The 100 µL of supernatant was transferred in fresh 96 well plate and treated with 100 µL of freshly prepared 2% Ehlrich reagent which was then analyzed by absorbance plate reader at 492 nm to measure the extent of kynurenine formation. The DMSO content in the sample was 0.005 %. The final concentration of the compound in deep well plate was 5 µM. The IC50 values were calculated in triplicate by using GraphPadPrism […]
1. Water was substituted with L-tryphtophan
2. Water was substituted with L-tryhtophan and rhIDO/ rhTDO protein.
A = IDO activity in presence of inhibitor

Kinetic solubility = type: physicochemical; conditions: for solubility kinetic at 18 h: phosphate buffered saline, aqueous buffer, kinetic from dmso stock, at 1 mg/ml in phosphate buffer at pH 7.4, read-out: Kinetic solubility of the compounds
Text: (§1) For the DMPK studies of the compound 8a-d we used rat as well as human plasmas. Rat plasma was purchased from Hylasco Biotechnology Pvt. Ltd.™ Hyderabad, India. We have not performed any in vivo experiments for this manuscript neither for animals nor for humans. […] Also please note the blood plasma was obtained from the blood of Dr Srinivas R Maddi, who donated it and is the co-author of this article. The DMPK studies were supplemented by kinetic solubility, Log p and Log D determinations, PAMPA permeability, Metabolic and Plasma stability in rat and human, and finally the plasma folding in rat and human. A thorough discussion of each step is mentioned in the supplementary information. […]
Kinetic solubility: Solubility of the compounds was dete rmined by incubating the compound at 500
µM concentration in phosphate buffer saline, pH7.4 for 18 hours with constant vortex at 500 rpm.
After incubation period, samples were centrifuged and supernatant was injected into HPLC to
determine the solubility. […]

[2] = Log P determination (octanol/water); type: physicochemical
Text: as §1
Octanol and buffer layers were analysed by HPLC -UV by
adjusting the needle height for each Octanol and buffer and the amount of compound distributed i nto

[3] = Stability in human plasma; type: in vitro ADME
Text: as §1
(§2) Stability in rat and human plasma: Plasma stability is defined as the percentage of parent compound lost over time. The frozen plasma was thawed at room temperature and centrifuged at 1400 rpm 4 ℃, for 15 minutes. Approximately 90% of the clear supernatant fraction was transferred to a separate tube and was used for assay. The incubation mixtures consisted of human and rat palsma and compound (1 μM) or positive control (propanthelin, 1 μM) and incubated for 120 min at 37℃ in shaker with 500 rpm. All reactions were terminated using 200 μL of ice-cold acetonitrile containing internal standard (150 ng/mL of telmisartan) at 0, 15, 30, 60 and 120 min and centrifuged at 4000 rpm (Eppendorf, Germany) for 20min. The supernatants thus obtained were analyzed on LC-MS/MS to monitor the disappearance of compound. […]

Stability in rat plasma = type: in vitro ADME
Text: as §1, §2

[4] = Plasma protein binding in human plasma (rapid equilibrium dialysis); type: in vitro ADME; conditions: pH 7.4, human plasma
Text: as §1
(§3) Plasma protein binding in rat and human plasma: To evaluate the ability of compound to bind the plasma proteins, the most common approach of plasma protein binding using rapid equilibrium dialysis device ( RED inserts) used. Compounds were tested at a final concentration of 10 μM in mouse, rat and human plasma. An aliquot of 500 μL plasma containing compound 3k was added in first half (plasma side) of the well of RED device. An aliquot of 300 μL of 100 mM sodium phosphate buffer pH 7.4 was added in the second half (buffer side) of the Insert. The plate containing plasma and […]

[5] = Plasma protein binding in rat plasma (rapid equilibrium dialysis); type: in vitro ADME; conditions: for Rat plasma protein binding %Ge bound / Rat plasma protein binding %Ge free: 10 μM; for fraction unbound at 10 μM: pH 7.4
Text: as §1, §3

[6] = Metabolic stability in human liver microsomes; type: in vitro ADME
Experimental: (§4) Metabolic stability in mouse, rat and human liver microsomes: Metabolic stability was defined as the percentage of parent compound lost over time in the presence of a metabolically active test system.
(§5) The incubation mixtures consisted of liver microsomes 1.0 mg microsomal protein /mL , compound 1 uM or positive control verapamil, 1 uM . The reactions were initiated by adding 1 mM NADPH.
(§6) Reactions without NADPH at 0 and 60 min were also incubated to rule out non-NADPH metabolism or chemical instability in the incubation buffer. All reactions were terminated using 200 uL of ice-cold acetonitrile containing internal standard 200 ng/mL of telmisartan at 0, 5, 15, 30 and 60 min. The vials were centrifuged at 4000 rpm for 20 min. The supernatants thus obtained were analyzed on LC-MS/MS to monitor the disappearance of compound. […]

[7] = Metabolic stability in rat liver microsomes; type: in vitro ADME; conditions: for Rat liver microsomal stability % QH (hepatic extraction ratio): rat liver microsomes; for Clearance in animal microsomes: animal microsomal data among rat, dog and monkey
Experimental: as §4, §5, §6

[8] = Metabolic stability in monkey liver microsomes; type: in vitro ADME
[9] = biological target: T2, indolamine-2, 3-dioxygenase one (IDO1) (Homo sapiens, UniProt P14902); assay: Inhibition kinetics (Lineweaver-Burk plots); type: biochemical; conditions: L-tryptophan 1–4 mM, inhibitor 0–1.5 µM; with respect to L-tryptophan
T2 construct: purchased Biovision P1096
T2 sequence (P14902 whole entry): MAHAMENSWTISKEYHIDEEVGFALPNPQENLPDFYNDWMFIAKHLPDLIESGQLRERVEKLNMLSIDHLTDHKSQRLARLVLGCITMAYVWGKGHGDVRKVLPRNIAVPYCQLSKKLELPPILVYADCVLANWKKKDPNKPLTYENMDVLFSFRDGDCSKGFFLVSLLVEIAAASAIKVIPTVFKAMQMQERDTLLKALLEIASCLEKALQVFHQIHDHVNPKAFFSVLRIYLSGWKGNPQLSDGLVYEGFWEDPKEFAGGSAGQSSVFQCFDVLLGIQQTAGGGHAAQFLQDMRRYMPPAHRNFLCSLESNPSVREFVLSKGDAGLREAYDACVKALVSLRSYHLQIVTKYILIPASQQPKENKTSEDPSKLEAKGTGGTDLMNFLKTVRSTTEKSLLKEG
Experimental: The IDO1 activity assay was performed to measure the formation of […] by absorbance plate reader at 492 nm. The mode of inhibition of the screened compounds was determined from the Lineweaver-Burk plots, which are the double reciprocal plots of enzyme reaction velocities (1/V) vs. substrate concentrations (1/[S]), where V and [S] represent the initial rate of enzymatic reaction and L-tryptophan concentration respectively.

[10] = 10 μM, read-out: Human plasma protein binding %Ge bound (converted)
[11] = 10 μM, read-out: Human plasma protein binding %Ge free
[12] = read-out: Fraction unbound in human plasma

CC(=O)NCCc1c(C(=O)c2cc(C(F)(F)F)cc(C(F)(F)F)c2)[nH]c2ccccc12 [8a]
IC50 [1]: 6.95 µM
Solubility (Kinetic solubility): very good
solubility kinetic at 18 h (Kinetic solubility): 64.1 µg/mL (≈ 145 µM)
logP [2]: > 3.5
Human plasma stability %Ge remaining after 120 min [3]: 84.5%
Rat plasma stability %Ge remaining after 120 min (Stability in rat plasma): 84.5%
fraction unbound at 10 μM [4, 10]: 0.0064
fraction unbound at 10 μM [4, 11]: 0.0064
fraction unbound at 10 μM [4, 12]: 0.0064
Rat plasma protein binding %Ge bound [5]: 97.3%
Rat plasma protein binding %Ge free [5]: 2.7%
fraction unbound at 10 μM [5]: 0.027
Human liver microsomal % QH (hepatic extraction ratio) [6]: 73.9%
Metabolic stability in liver microsomes [6]: unstable
Rat liver microsomal stability % QH (hepatic extraction ratio) [7]: 12.6%
Monkey liver microsomal stability % QH (hepatic extraction ratio) [8]: 97%

CC(=O)NCCc1c(C(=O)c2ccc([N+](=O)[O-])cc2)[nH]c2ccccc12 [8d]
IC50 [1]: 9.16 µM
Mode of inhibition of IDO1 [9]: competitive
Solubility (Kinetic solubility): very good
solubility kinetic at 18 h (Kinetic solubility): 56.9 µg/mL (≈ 162 µM)
logP [2]: 2.67
Human plasma stability %Ge remaining after 120 min [3]: 85.0%
Rat plasma stability %Ge remaining after 120 min (Stability in rat plasma): 91.3%
fraction unbound at 10 μM [4, 10]: 0.0952
fraction unbound at 10 μM [4, 11]: 0.0952
fraction unbound at 10 μM [4, 12]: 0.095
Rat plasma protein binding %Ge bound [5]: 82.1%
Rat plasma protein binding %Ge free [5]: 17.9%
fraction unbound at 10 μM [5]: 0.179
Human liver microsomal % QH (hepatic extraction ratio) [6]: 33% and 32.6%
Metabolic stability in liver microsomes [6]: moderately stable
Clearance in animal microsomes [7]: low to moderate clearance
Rat liver microsomal stability % QH (hepatic extraction ratio) [7]: 2.2%
Monkey liver microsomal stability % QH (hepatic extraction ratio) [8]: 74%

COC(=O)NCCc1c(C(=O)c2ccccc2)[nH]c2ccccc12 [8e]
IC50 [1]: 16.8 µM
Solubility (Kinetic solubility): very good
solubility kinetic at 18 h (Kinetic solubility): 67.4 µg/mL (≈ 209 µM)
logP [2]: 2.88
Human plasma stability %Ge remaining after 120 min [3]: 108.3%
Rat plasma stability %Ge remaining after 120 min (Stability in rat plasma): 96.3%
fraction unbound at 10 μM [4, 10]: 0.0213
fraction unbound at 10 μM [4, 11]: 0.0213
fraction unbound at 10 μM [4, 12]: 0.021
Rat plasma protein binding %Ge bound [5]: 95.9%
Rat plasma protein binding %Ge free [5]: 4.1%
fraction unbound at 10 μM [5]: 0.041
Human liver microsomal % QH (hepatic extraction ratio) [6]: 58%
Metabolic stability in liver microsomes [6]: moderately stable
Clearance in animal microsomes [7]: low to moderate clearance
Rat liver microsomal stability % QH (hepatic extraction ratio) [7]: 14.9%
Monkey liver microsomal stability % QH (hepatic extraction ratio) [8]: 96%
